Assay [1] has as its system PANC-1 (Pancreas/duct epithelioid carcinoma). The assay is described as follows: Xenograft study. It is filed as in vivo, mice. To be noted: PANC-1 xenograft, IP. From the text: (§1) The Xenograft models used were HT-29, KB, PA-1, MCF-7, PANC-1, T24 and MDA-MB-231. The basic study design for the Xenograft study was as follows: • 1. Cell maintenance and cell suspension preparation • 2. Aseptic injection of tumor cell suspension in the donor animal • 3. Randomization of animals in respective groups • 4. IP dosing of test items in predetermined doses • 5. IP administration of standard • 6. After completion of dosing period. • 7. The Tumor volume recording weekly twice while body weight and clinical signs daily.

Assay [2] concerns EA.hy926 (Human endothelial cells). The assay is described as follows: endothelial cell proliferation by MTT assay. The assay is classed as cell-based. The settings on record: 72 h. The method, then:
The cell line used for the study was EA.hy926 (Human endothelial cells) which was procured from National Centre for Cell Science, Pune (India). The cell line was maintained in DMEM+10% FBS (heat inactivated) at 37° C. with 5% CO2, and 95% humidity. […] Untreated cells with complete medium (10% FBS) served as complete medium control, cells with sera free medium served as SFM control and the cells treated with Paclitaxel served as positive control.
The percentage cytotoxicity corresponding to each treatment was calculated.
For orientation: Formazan colour is commonly taken as a measure of viable cells.

The test system is the same in assay [3]. The assay is described as follows: Cell migration by scratch assay in endothelial cells. It is filed as cell-based. To be noted: Homo sapiens, read-out: Inhibition of migration with respect to untreated; for inhibition at 0.0001 µM: 0.1 nM; for inhibition at 0.001 µM: 1 nM; for inhibition at 0.0025 µM: 2.5 nM; for inhibition at 0.005 µM: 5 nM; for inhibition at 0.01 µM: 10 nM. The method, then:
EA.hy296 cells were counted using hemocytometer and plated in 6-well plates at the density of 0.5×10^6 cells/well. The cells were incubated overnight under growth conditions as described above so as to allow cell recovery and exponential growth. Following overnight incubation, a small linear scratch (representative wound) was created in the confluent monolayer (middle of the well) by gently scraping with sterile 200 μl micropipette tip. Photomicrographs of the scratch were taken at 0 h (Initial time point). Cells were rinsed with serum free DMEM and grouped for treatment in two different serum conditions:
• Baseline control: Cells+DMEM • Positive/Validation control: Baseline control+Positive Control. Test: Baseline control+Test Item
• Baseline control: Cells+DMEM+1% FBS • Positive/Validation control: Baseline control+Positive Control. • Test: Baseline control+Test item
Photomicrographs of the scratch were taken at 24 h-72 h time points. The photomicrographs obtained in the above step were analyzed for quantitative assessment of area of wound closure using ImageJ tool software. Percentage migration with respect to untreated cells at different time points was calculated.

Assay [4] concerns neovascularization of Matrigel plug containing FGF-2 (bFGF). The assay is described as follows: Matrigel plug assay (in-vivo anti-angiogenesis). The arrangement: species or system C57BL/6 mice. The settings on record: G3, 55 mg/Kg, qdx15. The method, then:
Healthy C57BL/6 mice were selected and grouped on the basis of body weight into […] (G1-G4, n=7). Each mouse of group G2-G4 was subcutaneously injected at right flank region with 500 μl of matrigel containing 500 ng of FGF-2 (bFGF). Whereas mice of G1 group were subcutaneously injected at right flank region with 500 μl of matrigel only. In this assay, angiogenesis-inducing compounds such as bFGF was introduced into cold liquid Matrigel which, after subcutaneous injection, solidified and permits penetration by host cells and the formation of new blood vessels (neovascularization).
Required amount of test items were taken and added to an appropriate volume of Tris Buffered Saline (TBS) to achieve the required concentrations. The dose volume given to animal was 10 mL/Kg.
Daily cage-side observations were carried out to detect any clinical signs or mortality and recorded throughout the experiment period.

The subject of assay [5] is HT-29 (Colorectal cancer). The assay is described as follows: Xenograft study. The assay is classed as in vivo, mice. To be noted: HT-29 xenograft, IP.
From the text: as §1

These results are taken from patent US20230348564A1, “ANTI-CANCER PROTEINS” (UNICHEM LABORATORIES LTD, priority 2020, published 2023).

Structures are written as SMILES. Like-named read-outs stand apart in the source and are kept apart here.

Turning to `Nc1ccn([C@@H]2O[C@H](CO)[C@@H](O)C2(F)F)c(=O)n1` [Gemcitabine, reference compound], in assay [1], the “Maximum Tumor Growth Inhibition (%)” value is recorded as 61.49% and the “Tumor Volume (mm^3) (Mean ± SEM)” value is given as 503.93 ± 151.27 mm^3.
As for `CC(=O)O[C@H]1C(=O)[C@@]2(C)[C@H]([C@H](OC(=O)c3ccccc3)[C@]3(O)C[C@H](OC(=O)[C@H](O)[C@@H](NC(=O)c4ccccc4)c4ccccc4)C(C)=C1C3(C)C)[C@]1(OC(C)=O)CO[C@@H]1C[C@@H]2O` [Paclitaxel, reference compound], the “Mean (MTT absorbance)” value was determined as 0.93 in assay [2] (1 nM), 0.89 in assay [2] (10 nM), 0.57 in assay [2] (100 nM) and 0.45 in assay [2] (1000 nM). Also, the inhibition at 0.001 µM in assay [2] (Homo sapiens, EA.hy 926, 1 nM, read-out: % inhibition of FBS stimulated cell growth) amounted to 42%; in assay [3] (EA.hy 926, 24 h, 24 h, 1% FBS), 7.8%; in assay [3] (EA.hy 926, 24 h, 24 h, SFM) it was 28.5%; in assay [3] (EA.hy 926, 48 h, 48 h, 1% FBS), 2.1%; in assay [3] (EA.hy 926, 48 h, 48 h, SFM), 36.8%; in assay [3] (EA.hy 926, 72 h, 72 h, SFM), 32.7%. The inhibition at 0.01 µM was determined as 44.7% in assay [2] (Homo sapiens, EA.hy 926, 10 nM, read-out: % inhibition of FBS stimulated cell growth); 44.4% in assay [3] (EA.hy 926, 24 h, 24 h, 1% FBS); 58.9% in assay [3] (EA.hy 926, 24 h, 24 h, SFM); 37.2% in assay [3] (EA.hy 926, 48 h, 48 h, 1% FBS); 60.2% in assay [3] (EA.hy 926, 48 h, 48 h, SFM); 56.3% in assay [3] (EA.hy 926, 72 h, 72 h, SFM). In addition, the inhibition at 0.1 µM in assay [2] (Homo sapiens, EA.hy 926, 100 nM, read-out: % inhibition of FBS stimulated cell growth) came to 64.5%. For the same compound, the inhibition at 1 µM in assay [2] (Homo sapiens, EA.hy 926, 1000 nM, read-out: % inhibition of FBS stimulated cell growth) was 71.7%. For the same compound, the inhibition at 0.0001 µM was -1.1% in assay [3] (EA.hy 926, 24 h, 24 h, 1% FBS); 26.5% in assay [3] (EA.hy 926, 24 h, 24 h, SFM); -0.2% in assay [3] (EA.hy 926, 48 h, 48 h, 1% FBS); 21.1% in assay [3] (EA.hy 926, 48 h, 48 h, SFM); 7.8% in assay [3] (EA.hy 926, 72 h, 72 h, SFM). The inhibition at 0.0025 µM is 25.9% in assay [3] (EA.hy 926, 24 h, 24 h, 1% FBS); 51.4% in assay [3] (EA.hy 926, 24 h, 24 h, SFM); 18.3% in assay [3] (EA.hy 926, 48 h, 48 h, 1% FBS); 51.6% in assay [3] (EA.hy 926, 48 h, 48 h, SFM); 42.8% in assay [3] (EA.hy 926, 72 h, 72 h, SFM). Besides, the inhibition at 0.005 µM in assay [3] (EA.hy 926, 24 h, 24 h, 1% FBS) was 25%; in assay [3] (EA.hy 926, 24 h, 24 h, SFM) it was 43.7%; in assay [3] (EA.hy 926, 48 h, 48 h, 1% FBS), 10.6%; in assay [3] (EA.hy 926, 48 h, 48 h, SFM), 45.2%; in assay [3] (EA.hy 926, 72 h, 72 h, SFM), 47.3%.
As to `CCN(CC)CCNC(=O)c1c(C)[nH]c(/C=C2\C(=O)Nc3ccc(F)cc32)c1C` [Sunitinib, reference compound], in assay [4] (p.o.), the “Hemoglobin Content in the Matrigel Plug Section, Mean” value came out at 21.92 and the “reduction in hemoglobin content in homogenate of Matrigel plug compared to positive control” value was 59.2%. For the same compound, in assay [4], the “Histological Observation, Fat cell Infiltration, Mean” value is 0.71; the “Histological Observation, Fibroblast Infiltration, Mean” value was found to be 2.43; the “Histological Observation, MN cell Infiltration, Mean” value was 1.57; the “Histological Observation, Neovascularization, Mean” value was 1.14.
On to `O=c1[nH]cc(F)c(=O)[nH]1` [5-Fluorourasil, reference compound], for which, in assay [5], the “Maximum Tumor Growth Inhibition (%)” value amounted to 62.94% and the “Tumor Volume (mm^3) (Mean ± SEM)” value stood at 1362 ± 155 mm^3.
